For data set [1], the system named is βCat-eGFP reporter in human U2OS cells. In words: Cellular β-catenin stability assay (βCat-eGFP reporter). Type of data set: cell-based. As to conditions: for β-catenin accumulation: βCat-eGFP reporter assay. The protocol: Cellular-β-Catenin Stability Assay: To study effects of small molecules on GSK-3/β-catenin signaling in cells, we optimized an image-based assay that measures β-catenin stability. This assay uses human U2OS cells engineered to express a genetically encoded fluorescent reporter consisting of a fusion of β-catenin to enhanced green fluorescent protein (eGFP) that were obtained from Thermo Fisher Scientific (Denmark). […] Lithium treatments at 10 mM and valproic acid at 10 mM also have the same effect in this assay. […] Cells were imaged on an ImageXpress Micro (Molecular Devices) automated microscope at 10× magnification with detection of both DNA and eGFP fluorescence. The percentage of eGFP positive cells was calculated and compared to an untreated control.
(In general: In a reporter assay the amount or activity of a reporter protein is the signal.)

Data set [2] has as its system amphetamine-induced hyperactivity in C57BL/6J mice. Briefly: Amphetamine-induced hyperactivity (AIH) in C57BL/6J mice. The class given is in vivo.
Data set [3] concerns the target T1, human GSK-3β (Homo sapiens, UniProt P49841).
T1 construct: Recombinant full-length human GSK-3β (NM_002093) with an N-terminal GST tag; GST (N); purchased BPS Biosciences 40007; host or cells: Sf9 insect cells (baculovirus)
Briefly: in vitro GSK-3β kinase assay (Kinase-Glo luminescence). The class given is biochemical. The conditions noted are these: FIG. 9 dose response, n=4.

The test system of data set [4] is amphetamine-induced hyperactivity in DBA/2J mice. In words: Lithium-nonresponsive AIH in DBA/2J mice. Type of data set: in vivo. As to conditions: for effect on AIH: DBA/2J.
Data set [5] is described as follows: Serum level after systemic administration.
Data set [6] relates to TCF/LEF reporter in HEK293 cells. In words: TCF/LEF reporter assay with lithium. Type of data set: cell-based. As to conditions: FIG. 12.
For data set [7], the system named is panel of 358 kinases. In words: KINOMEscan active-site dependent competition binding assay. The conditions noted are these: 10 μM.
Data set [8] has as its system dopamine transporter (DAT) knockout mice. The conditions noted are these: 10 mg/kg; i.p.; cited from earlier work.
Where [9] appears, read: ICV 1 μl of 0.1, 1.4, 14 μg/μl, FIGS. 16-18.
Where [10] appears, read: intra-striatal infusion, 1 μl of 1.4 μg/μl, FIG. 22.

T1 sequence (P49841 1-433 isoform P49841-2): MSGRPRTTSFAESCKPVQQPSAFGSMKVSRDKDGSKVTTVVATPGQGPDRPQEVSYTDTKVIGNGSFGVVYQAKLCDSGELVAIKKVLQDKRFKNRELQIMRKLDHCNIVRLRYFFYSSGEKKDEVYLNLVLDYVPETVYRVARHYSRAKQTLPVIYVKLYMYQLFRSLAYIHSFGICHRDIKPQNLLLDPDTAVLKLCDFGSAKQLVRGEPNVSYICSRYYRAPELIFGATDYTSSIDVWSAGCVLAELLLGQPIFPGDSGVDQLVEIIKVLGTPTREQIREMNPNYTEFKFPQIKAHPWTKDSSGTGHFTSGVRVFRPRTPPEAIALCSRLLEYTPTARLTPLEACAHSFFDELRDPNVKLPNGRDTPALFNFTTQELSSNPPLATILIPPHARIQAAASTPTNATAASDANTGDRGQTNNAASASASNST

Consider `COc1ccc(CNC(=O)Nc2ncc([N+](=O)[O-])s2)cc1` [AR-A014418], for which the “eGFP fluorescence and accumulation of βCat-eGFP reporter” value in data set [1] (20 μM over 20 hrs) is “dose dependent increase in eGFP fluorescence”. In addition, the “effect on AIH” value in data set [2] (9 mg/kg i.p., FIG. 19) is “None of these GSK-3 inhibitors showed a significant effect on hyperactivity”.
Broadly, the IC50 is the concentration needed to halve the response being measured. As for `CN(C)CCCn1cc(C2=C(c3c[nH]c4ccccc34)C(=O)NC2=O)c2ccccc21` [BIM-I, bisindoylmaleimide I], the IC50 in data set [3] is approximately 6.9 nM.
With `Cc1c[nH]c(-c2cnc(NCCNc3ccc(C#N)cn3)nc2-c2ccc(Cl)cc2Cl)n1` [CHIR-99021], the “effect on AIH” value in data set [4] (50 mg/kg i.p., FIG. 26) was “significant attenuation of AIH”; in data set [4] (ICV 0.14 μg (1 μl infusion), FIG. 28), “significantly attenuated AIH”; in data set [4] (ICV 1.4 μg (1 μl infusion), FIG. 28), “significantly attenuated AIH”; in data set [2] (6.25 mg/kg single dose i.p., FIG. 24), “non-effective dose”; in data set [2] (12.5 mg/kg single dose i.p., FIG. 24), “significantly decreased amphetamine-induced hyperactivity”; in data set [2] (25 mg/kg single dose i.p., FIG. 24) it was “significantly decreased amphetamine-induced hyperactivity”. Also, the “effect on AIH” value in data set [2] (setting [9]) is listed as “effective in attenuating AIH to levels comparable to those observed after lithium administration”; in data set [2] (setting [10]), “almost complete ablation of the amphetamine-induced hyperactivity”. Further, the “lowest dose that attenuated AIH” value was determined as 0.78 mg/kg in data set [4] (systemic (i.p.), DBA/2J mice, FIG. 27) and 12.5 mg/kg in data set [2] (systemic (i.p.), C57BL/6J mice). In addition, the maximum serum level in data set [5] (3.125 mg/kg systemic, extrapolated) is 3 to 4 µM; in data set [5] (3.125 mg/kg systemic, extrapolated, listed as compound of formula 7) it was “about 4 μM”; in data set [5] (12.5 mg/kg systemic), “about 15 μM”; in data set [5] (50 mg/kg systemic) it was “about 69 μM”. The “TCF/LEF reporter signal: effect of addition of lithium” value in data set [6] (high concentration of Chir99021) is reported as “synergistic effect”; in data set [6] (lower concentrations of Chir99021), “only an additive effect”. Also, the “Number of Binding Targets (kinases)” value in data set [7] is 10.
For the compound `Cn1cc(C2=C(c3ccc(Cl)cc3Cl)C(=O)NC2=O)c2ccccc21` [SB-216763], the “Number of Binding Targets (kinases)” value in data set [7] came out at 31. Further, the “hyperactivity in DAT knockout mice” value in data set [8] was “attenuates hyperactivity”. The “effect on AIH” value in data set [2] (5, 10, 20 mg/kg i.p.) is recorded as “None of these GSK-3 inhibitors showed a significant effect on hyperactivity”; in data set [2] (ICV in DMSO vehicle), “None of these GSK-3 inhibitors showed a significant effect on hyperactivity”.
`Cn1cc(C2=C(c3cn(C4CCN(Cc5ccccn5)CC4)c4ccccc34)C(=O)NC2=O)c2ccccc21` [enzastaurin]: the “Number of Binding Targets (kinases)” value in data set [7] was 75. The β-catenin accumulation result in data set [1] was “able to cause β-catenin accumulation”. The results for the “effect on AIH” value in data set [2] (setting [9]) and in data set [2] (setting [10]) were “no effect in AIH” and “modestly effective”, respectively.
Take `CN(C)C[C@@H]1CCn2cc(c3ccccc32)C2=C(C(=O)NC2=O)c2cn(c3ccccc23)CCO1` [ruboxistaurin]: the “Number of Binding Targets (kinases)” value in data set [7] came to 95. The β-catenin accumulation entry in data set [1] is on record as “able to cause β-catenin accumulation”. The “effect on AIH” value in data set [2] (setting [9]) is on record as “moderate attenuating effect”.
For `CCCC(CCC)C(=O)O` [valproic acid], in data set [1] (10 mM), the “eGFP fluorescence and accumulation of βCat-eGFP reporter” value is “same effect”.

The record behind these values is patent US9265764B2, “Uses of chemicals to modulate GSK-3 signaling for treatment of bipolar disorder and other brain disorders” (Massachusetts Institute of Technology, priority 2009, dated 2016).
